In patent publication US9725445B2, “Cycloalkyl nitrile pyrazolo pyridones as Janus kinase inhibitors” (Merck Sharp & Dohme Corp., priority 2013, dated 2017):
Where two headings read alike, the source gives them in different places.

Key:
[1] = molecular target: JAK2 (Homo sapiens (Human), UniProt O60674); test: Jak biochemical HTRF assay, JAK2; conditions: recombinant GST-tagged catalytic domain
[2] = molecular target: JAK1 (Homo sapiens (Human), UniProt P23458); test: Jak biochemical HTRF assay, JAK1; conditions: recombinant GST-tagged catalytic domain
Sequence of JAK1 (P23458 875-1153): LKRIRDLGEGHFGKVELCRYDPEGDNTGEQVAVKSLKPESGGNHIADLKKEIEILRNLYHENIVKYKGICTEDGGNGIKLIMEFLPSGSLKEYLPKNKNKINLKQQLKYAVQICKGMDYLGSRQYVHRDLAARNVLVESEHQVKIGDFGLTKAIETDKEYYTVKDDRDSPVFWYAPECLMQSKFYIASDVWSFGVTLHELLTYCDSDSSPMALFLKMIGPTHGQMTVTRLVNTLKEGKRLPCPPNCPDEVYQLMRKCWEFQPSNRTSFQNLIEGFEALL

[3] = HTRF biochemical assay, read-out: JAK2 IC50
[4] = HTRF biochemical assay, read-out: JAK1 IC50

Sequence of JAK2 (O60674 849-1124): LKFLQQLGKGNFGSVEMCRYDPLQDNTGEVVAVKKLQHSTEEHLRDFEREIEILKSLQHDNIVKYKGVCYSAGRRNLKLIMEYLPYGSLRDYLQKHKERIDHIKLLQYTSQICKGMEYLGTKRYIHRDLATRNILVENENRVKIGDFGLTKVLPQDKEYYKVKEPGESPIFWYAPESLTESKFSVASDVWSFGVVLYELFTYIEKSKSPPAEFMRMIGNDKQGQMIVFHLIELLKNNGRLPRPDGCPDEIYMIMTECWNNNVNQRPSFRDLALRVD

IC50 [1, 3] [nM] | IC50 [2, 4] [nM] | Compound | IC50 ([1]; JAK2 IC50, HTRF biochemical assay) [nM] | IC50 ([2]; JAK1 IC50, HTRF biochemical assay) [nM]
37 | 0.5 | C[C@H](N[C@H]1CC[C@H](n2nc(Nc3ccc(OC(F)(F)F)cc3)c3c(=O)[nH]ccc32)[C@@H](C#N)C1)C1CC1 [Example 5-28, (1S,2S,5S)-5-(((S)-1-cyclopropylethyl)amino)-2-(4-oxo-3-((4-(trifluoromethoxy)phenyl)amino)-4,5-dihydro-1H-pyrazolo[4,3-c]pyridin-1-yl)cyclohexanecarbonitrile] |  | 
14 | 19 | Cc1cc(Nc2nn([C@H]3CCCCC[C@@H]3C#N)c3cc[nH]c(=O)c23)ccc1C(=O)N1CCCC1 (single isomer, unassigned) [Example 15-47, (1S,2S or 1R,2R)-2-(3-{[3-methyl-4-(pyrrolidin-1-ylcarbonyl)phenyl]amino}-4-oxo-4,5-dihydro-1H-pyrazolo[4,3-c]pyridin-1-yl)cycloheptanecarbonitrile] |  | 
1.4 | 0.11 | CC1(C)C(=O)Nc2cc(Nc3nn([C@H]4CCCC[C@@H]4C#N)c4cc[nH]c(=O)c34)ccc21 [Example 15-7, (1S,2S)-2-{3-[(3,3-dimethyl-2-oxo-2,3-dihydro-1H-indol-6-yl)amino]-4-oxo-4,5-dihydro-1H-pyrazolo[4,3-c]pyridin-1-yl}cyclohexanecarbonitrile] |  | 
0.59 | 0.099 | CNS(=O)(=O)c1ccc(Nc2nn([C@H]3CCCC[C@@H]3C#N)c3cc[nH]c(=O)c23)cc1 [Example 3-144, 4-({1-[(1S,2S)-2-cyanocyclohexyl]-4-oxo-4,5-dihydro-1H-pyrazolo[4,3-c]pyridin-3-yl}amino)-N-methylbenzenesulfonamide] |  | 
0.86 | 0.31 | N#C[C@H]1CCCC[C@@H]1n1nc(Nc2ccc3c(c2)CNC3)c2c(=O)[nH]ccc21 [Example 12-1, (1S,2S)-2-(3-(Isoindolin-5-ylamino)-4-oxo-4,5-dihydro-H-pyrazolo[4,3-c]pyridin-1-yl)cyclohexanecarbonitrile] |  | 
97 | 18 | N#C[C@@H]1CCCC[C@H]1n1nc(Nc2ccnc(F)c2)c2c(=O)[nH]ccc21 [Example 3-1, (1R,2R)-2-{3-[(2-Fluoropyridin-4-yl)amino]-4-oxo-4,5-dihydro-1H-pyrazolo[4,3-c]pyridin-1-yl}cyclohexanecarbonitrile] |  | 
1.3 | 0.5 | N#C[C@H]1CCCC[C@@H]1n1nc(Nc2cccc(Cn3cncn3)c2)c2c(=O)[nH]ccc21 [Example 3-50, (1S,2S)-2-(4-oxo-3-{[3-(1H-1,2,4-triazol-1-ylmethyl)phenyl]amino}-4,5-dihydro-1H-pyrazolo[4,3-c]pyridin-1-yl)cyclohexanecarbonitrile] |  | 
122 | 5.3 | C[C@H](NC1CCC(n2nc(Nc3ccc(Cl)cc3)c3c(=O)[nH]ccc32)C(C#N)C1)C1CC1 (stereo in doubt) [Example 4-1, (1R,2R,5S)-2-(3-((4-Chlorophenyl)amino)-4-oxo-4,5-dihydro-1H-pyrazolo[4,3-c]pyridin-1-yl)-5-(((S)-1-cyclopropylethyl)amino)cyclohexanecarbonitrile] |  | 
1.5 | 0.32 | N#C[C@H]1CCCC[C@@H]1n1nc(Nc2ccc(CNC(=O)c3cnco3)cc2)c2c(=O)[nH]ccc21 [Example 3-29, N-[4-({1-[(1S,2S)-2-cyanocyclohexyl]-4-oxo-4,5-dihydro-1H-pyrazolo[4,3-c]pyridin-3-yl}amino)benzyl]-1,3-oxazole-5-carboxamide] |  | 
7 | 0.33 | CN(C)[C@H]1CC[C@H](n2nc(Nc3ccc(OC(F)(F)F)cc3)c3c(=O)[nH]ccc32)[C@@H](C#N)C1 [Example 5-26, (1S,2S,5S)-5-(dimethylamino)-2-(4-oxo-3-((4-(trifluoromethoxy)phenyl)amino)-4,5-dihydro-1H-pyrazolo[4,3-c]pyridin-1-yl)cyclohexanecarbonitrile] |  | 
0.33 | 0.11 | CN(C)S(=O)(=O)c1ccc(Nc2nn([C@H]3CCCC[C@@H]3C#N)c3cc[nH]c(=O)c23)cc1 [Example 3-6, 4-({1-[(1S,2S)-2-cyanocyclohexyl]-4-oxo-4,5-dihydro-1H-pyrazolo[4,3-c]pyridin-3-yl}amino)-N,N-dimethylbenzenesulfonamide] |  | 
0.92 | 0.33 | N#C[C@H]1CCCC[C@@H]1n1nc(Nc2ccc3c(c2)CN(CC2CCCC2)C3)c2c(=O)[nH]ccc21 [Example 3-162, (1S,2S)-2-(3-{[2-(cyclopentylmethyl)-2,3-dihydro-1H-isoindol-5-yl]amino}-4-oxo-4,5-dihydro-1H-pyrazolo[4,3-c]pyridin-1-yl)cyclohexanecarbonitrile] |  | 
0.82 | 0.46 | N#C[C@H]1CCCC[C@@H]1n1nc(Nc2ccc(CN)cc2)c2c(=O)[nH]ccc21 [Example 6-5, (1S,2S)-2-(3-((4-(aminomethyl)phenyl)amino)-4-oxo-4,5-dihydro-1H-pyrazolo[4,3-c]pyridin-1-yl)cyclohexanecarbonitrile] |  | 
0.28 | 0.19 | CCNC(c1ccc(Nc2nn([C@H]3CCC[C@@H]3C#N)c3cc[nH]c(=O)c23)cc1)C(F)(F)F (single isomer, unassigned) [Example 3-114, (1S,2S)-2-[3-({4-[(1S or 1R)-1-(ethylamino)-2,2,2-trifluoroethyl]phenyl}amino)-4-oxo-4,5-dihydro-1H-pyrazolo[4,3-c]pyridin-1-yl]cyclopentanecarbonitrile] |  | 
0.43 | 0.34 | Cc1cc(Nc2nn([C@H]3CCCC[C@@H]3C#N)c3cc[nH]c(=O)c23)ccc1C(=O)N(C)C [Example 3-67, 4-({1-[(1S,2S)-2-cyanocyclohexyl]-4-oxo-4,5-dihydro-1H-pyrazolo[4,3-c]pyridin-3-yl}amino)-N,N,2-trimethylbenzamide] |  | 
4.2 | 3 | COCC(C)(O)c1cc(Nc2nn([C@H]3CCCC[C@@H]3C#N)c3cc[nH]c(=O)c23)ccc1S(C)(=O)=O (stereo partly drawn) [Example 3-85, (1S,2S)-2-(3-{[3-(1-hydroxy-2-methoxy-1-methylethyl)-4-(methylsulfonyl)phenyl]amino}-4-oxo-4,5-dihydro-1H-pyrazolo[4,3-c]pyridin-1-yl)cyclohexanecarbonitrile] |  | 
0.47 | 0.069 | N#C[C@H]1CCCC[C@@H]1n1nc(Nc2ccc3c(c2)CN([C@H]2CC[C@@H](C(=O)O)CC2)S3(=O)=O)c2c(=O)[nH]ccc21 [Example 16-2, (1S,4S)-4-(5-((1-((1S,2S)-2-cyanocyclohexyl)-4-oxo-4,5-dihydro-1H-pyrazolo[4,3-c]pyridin-3-yl)amino)-1,1-dioxidobenzo[d]isothiazol-2(3H)-yl)cyclohexanecarboxylic acid] |  | 
2.6 | 0.33 | CC1c2cc(Nc3nn([C@H]4CCCC[C@@H]4C#N)c4cc[nH]c(=O)c34)ccc2S(=O)(=O)N1C (single isomer, unassigned) [Example 3-127, (1S,2S)-2-(3-(((R or S)-2,3-dimethyl-1,1-dioxido-2,3-dihydrobenzo[d]isothiazol-5-yl)amino)-4-oxo-4,5-dihydro-1H-pyrazolo[4,3-c]pyridin-1-yl)cyclohexanecarbonitrile] |  | 
3.9 | 0.38 | Cc1cc(Nc2nn([C@@H]3CCCCC[C@H]3C#N)c3cc[nH]c(=O)c23)ccc1C(O)C(F)(F)F (single isomer, unassigned) [Example 15-67, (1R,2R or 1S,2S)-2-[3-({3-methyl-4-[(1S or 1R)-2,2,2-trifluoro-1-hydroxyethyl]phenyl}amino)-4-oxo-4,5-dihydro-1H-pyrazolo[4,3-c]pyridin-1-yl]cycloheptanecarbonitrile] |  | 
3.4 | 0.47 | N#C[C@H]1CCCC[C@@H]1n1nc(Nc2ccc3c(c2)CC(C(=O)O)C3)c2c(=O)[nH]ccc21 (stereo partly drawn) [Example 13-1, 5-((1-((1S,2S)-2-Cyanocyclohexyl)-4-oxo-4,5-dihydro-1H-pyrazolo[4,3-c]pyridin-3-yl)amino)-2,3-dihydro-1H-indene-2-carboxylic acid] |  | 
3.6 | 0.51 | N#C[C@H]1CCCC[C@@H]1n1nc(Nc2ccc(-c3ncon3)cc2)c2c(=O)[nH]ccc21 [Example 15-3, (1S,2S)-2-(3-{[4-(1,2,4-oxadiazol-3-yl)phenyl]amino}-4-oxo-4,5-dihydro-1H-pyrazolo[4,3-c]pyridin-1-yl)cyclohexanecarbonitrile] |  | 
0.29 | 0.026 | CN1Cc2cc(Nc3nn([C@H]4CCCC[C@@H]4C#N)c4cc[nH]c(=O)c34)ccc2S1(=O)=O [Example 3-49, (1S,2S)-2-{3-[(2-methyl-1,1-dioxido-2,3-dihydro-1,2-benzisothiazol-5-yl)amino]-4-oxo-4,5-dihydro-1H-pyrazolo[4,3-c]pyridin-1-yl}cyclohexanecarbonitrile] |  | 
0.15 | 0.067 | COCCC(C)(C)N1Cc2cc(Nc3nn([C@H]4CCCC[C@@H]4C#N)c4cc[nH]c(=O)c34)ccc2S1(=O)=O [Example 3-161, (1S,2S)-2-(3-{[2-(3-methoxy-1,1-dimethylpropyl)-1,1-dioxido-2,3-dihydro-1,2-benzisothiazol-5-yl]amino}-4-oxo-4,5-dihydro-1H-pyrazolo[4,3-c]pyridin-1-yl)cyclohexanecarbonitrile] |  | 
 |  | CC(C)(C)OC(=O)N1[C@@H]2CC[C@H]1C[C@@H](c1ccc(Nc3nn([C@H]4CCCC[C@@H]4C#N)c4cc[nH]c(=O)c34)cc1)C2 (single isomer, unassigned) [Example 3-165] | 7.9 | 2.6
0.28 | 0.47 | Cc1cc(Nc2nn([C@H]3CCCC[C@@H]3C#N)c3cc[nH]c(=O)c23)ccc1C(=O)N1CCOCC1 [Example 3-68, (1S,2S)-2-(3-{[3-methyl-4-(morpholin-4-ylcarbonyl)phenyl]amino}-4-oxo-4,5-dihydro-1H-pyrazolo[4,3-c]pyridin-1-yl)cyclohexanecarbonitrile] |  | 
